Data on seven substances can be found in ChEMBL document CHEMBL2429748, “DFT-based prediction of antifungal and insecticidal activities of perfluorophenyl antimony(III) and antimony(V) chlorides” (Med Chem Res, 2013).

Common to all, as to format: functional, organism-based
Assay [1] has as its system Aspergillus niger. Nature of the assay: Antifungal activity against Aspergillus niger assessed as growth inhibition at 100 ug/mL by agar diffusion method relative to control.
Assay [2] relates to Aspergillus flavus. As to the kind of experiment: Antifungal activity against Aspergillus flavus assessed as growth inhibition at 100 ug/mL by agar diffusion method relative to control.
For assay [3], the system named is Aspergillus niger. As to the kind of experiment: Antifungal activity against Aspergillus niger assessed as growth inhibition at 50 ug/mL by agar diffusion method relative to control.
Assay [4] deals with Aspergillus flavus. Nature of the assay: Antifungal activity against Aspergillus flavus assessed as growth inhibition at 50 ug/mL by agar diffusion method relative to control.
Assay [5] deals with Aspergillus niger. Nature of the assay: Antifungal activity against Aspergillus niger assessed as growth inhibition at 20 ug/mL by agar diffusion method relative to control.
The test system of assay [6] is Aspergillus flavus. As to the kind of experiment: Antifungal activity against Aspergillus flavus assessed as growth inhibition at 20 ug/mL by agar diffusion method relative to control.
Assay [7] has as its system Aspergillus niger. Nature of the assay: Antifungal activity against Aspergillus niger assessed as growth inhibition at 10 ug/mL by agar diffusion method relative to control.
Assay [8] concerns Aspergillus flavus. Nature of the assay: Antifungal activity against Aspergillus flavus assessed as growth inhibition at 10 ug/mL by agar diffusion method relative to control.

For the substance “tetrachloro(pentafluorophenyl)-{5}-stibane”, the growth inhibition (GI) in the assay with Aspergillus niger [1] was determined as 90%; in the assay on Aspergillus flavus [2], 93.3%; in the assay with Aspergillus niger [3], 75%; in the assay on Aspergillus flavus [4], 86.7%; in the assay with Aspergillus niger [5], 40%; in the assay on Aspergillus flavus [6] it was 80%. Further, the growth inhibition (GI) in the assay with Aspergillus niger [7] stood at 30%; in the assay on Aspergillus flavus [8], 73.3%.

For the substance chlorobis(perfluorophenyl)stibine, the growth inhibition (GI) in the assay on Aspergillus niger [1] came to 95%; in the assay on Aspergillus flavus [2] it was 86.7%; in the assay on Aspergillus niger [3] it was 70%; in the assay on Aspergillus flavus [4] it was 76.6%; with Aspergillus niger [5] it was 50%; in the assay on Aspergillus flavus [6] it was 66.6%. Further, the growth inhibition (GI) was determined as 25% in the assay with Aspergillus niger [7] and 53.3% in the assay on Aspergillus flavus [8].

Take tris(perfluorophenyl)stibine: the growth inhibition (GI) in the assay on Aspergillus niger [1] came out at 90%; with Aspergillus flavus [2] it was 86.7%; with Aspergillus niger [3] it was 75%; with Aspergillus flavus [4], 80%; with Aspergillus niger [5] it was 50%; in the assay on Aspergillus flavus [6] it was 66.6%. Further, the growth inhibition (GI) in the assay with Aspergillus niger [7] was 50%; with Aspergillus flavus [8], 60%.

In the case of “dichlorotris(pentafluorophenyl)-{5}-stibane”, the growth inhibition (GI) is 80% in the assay on Aspergillus niger [1]; 83.3% with Aspergillus flavus [2]; 60% with Aspergillus niger [3]; 73.3% in the assay with Aspergillus flavus [4]; 50% in the assay on Aspergillus niger [5]; 66.6% with Aspergillus flavus [6]. For the same substance, the growth inhibition (GI) with Aspergillus niger [7] worked out at 30%; with Aspergillus flavus [8] it was 60%.

As to “trichlorobis(pentafluorophenyl)-{5}-stibane”, the growth inhibition (GI) in the assay on Aspergillus niger [1] came to 75%; in the assay with Aspergillus flavus [2], 96.7%; with Aspergillus niger [3], 60%; in the assay on Aspergillus flavus [4], 83.3%; with Aspergillus niger [5] it was 40%; with Aspergillus flavus [6], 76.6%. Besides, the growth inhibition (GI) stood at 25% in the assay on Aspergillus niger [7] and 60% in the assay on Aspergillus flavus [8].

For the substance dichloro(perfluorophenyl)stibine, the growth inhibition (GI) came out at 90% in the assay with Aspergillus niger [1]; 73.3% in the assay on Aspergillus flavus [2]; 75% in the assay with Aspergillus niger [3]; 66.6% with Aspergillus flavus [4]; 60% with Aspergillus niger [5]; 60% in the assay on Aspergillus flavus [6]. The results for the growth inhibition (GI) with Aspergillus niger [7] and with Aspergillus flavus [8] were 50% and 53.3%, respectively.

“chloro(ethyl)tris(pentafluorophenyl)-{5}-stibane”: the growth inhibition (GI) was determined as 95% with Aspergillus niger [1]; 96.7% in the assay on Aspergillus flavus [2]; 80% with Aspergillus niger [3]; 83.3% with Aspergillus flavus [4]; 75% in the assay with Aspergillus niger [5]; 73.3% with Aspergillus flavus [6]. Besides, the growth inhibition (GI) in the assay with Aspergillus niger [7] was 60%; in the assay with Aspergillus flavus [8] it was 66.6%.
